Tests used:
L. guyanensis (LgyLRV1+) = assay: Drug-inhibition test: growth of LgyLRV1+ parasites; type: cell-based, Leishmania guyanensis; conditions: for Density (cells/mL) / Percent control (density) / activity at 100 µM: LgyLRV1+, tested at 100 μM, growth after 2 days; for activity at 100 µM: Leishmania guyanensis, 48 h, read-out: Percent control (density); for Effect on L. guyanensis growth, in words: screen at 100 μM or maximum concentration permitted by solubility, 2 days
Description: These compounds were examined for their ability to inhibit the growth of LgyLRV1^+ and virus levels by LRV1 capsid flow cytometry.
Most studies were performed using luciferase-expressing transfectants of L. guyanensis (MHOM/BR/78/M4147) described previously [LRV1^+ LgyM4147/SSU:IR2SAT-LUC(b)c3 and LRV^−LgyM4147/pX63HYG/SSU:IR2SAT-LUC(b)c4] (54); these lines are termed LgyLRV1^+ and LgyLRV1^−, respectively. Two strains of LRV1^+L. braziliensis were examined: LEM2780 (MHOM/BO/90/CS) and LEM3874 (MHOM/BO/99/IMT252 no. 3) (12). Parasites were grown in Schneider's media (Sigma Aldrich, St. Louis, Mo., USA) prepared according to the supplier's instructions with pH adjusted to 6.5 and supplemented with 0.76 mM hemin, 2 μg/mL biopterin, 50 U/mL penicillin, 50 μg/mL streptomycin, and 10% (vol/vol) heat-inactivated FBS. Cell concentrations were determined using a Coulter Counter ([…], Indianapolis, Ind., USA).
(§1) Parasites were inoculated at 2×10^5 cells/mL into Schneider's media lacking supplemental adenine.

[1] = system: LRV1 (LgyLRV1 capsid levels); assay: organism not typed; conditions: for LRV1 capsid (geometric mean FU) / Percent control (LRV1 capsid): tested at 100 μM; for LRV1 capsid (geometric mean FU) / Percent control (LRV1 capsid) / Effect on LRV1 (capsid) levels, in words: 2 days; for activity at 100 µM: 48 h, read-out: Percent control (LRV1 capsid); for Effect on LRV1 (capsid) levels, in words: screen at 100 μM or maximum concentration permitted by solubility; for Inhibition of LRV1 levels, in words: concentrations up to 100 μM, data not shown
From the text: Because LRV1 (like most Totiviridae) is not shed from the cell (33, 34), we developed a flow cytometric assay to measure intracellular LRV1 capsid levels on a per cell basis. To detect LRV1 we used binding to a rabbit anti-LgyLRV1 capsid antiserum (35) followed by detection with Alexa Fluor488-conjugated goat anti-rabbit IgG.
as §1
For capsid flow cytometry, 10^7 cells were fixed at room temperature using 2% (wt/vol) paraformaldehyde (Thermo Fisher Scientific) in PBS for 2 minutes. They were then incubated in blocking buffer [10% (vol/vol) normal goat serum (Vector Laboratories, Burlingame, Calif., USA) and 0.2% TRITON X-100 in PBS] for 30 minutes at room temperature. Anti-LgyLRV1 capsid antibody (35) was added (1:20,000 dilution) and incubated at room temperature for 1 hour. After two washes with PBS, cells were resuspended in 200 μL PBS with Alexa Fluor488-labeled goat anti-rabbit IgG (Alexafluor, Invitrogen; 1:1,000; or Thermo Fisher Scientific; 1:2,000 dilution), and incubated 1 hour at room temperature. After two additional washes with PBS, cells were subjected to flow cytometry, gating for single cells using forward and side scatter and the data analyzed using […] software (BD Bioscience, San Jose, Calif., USA).

Question: Which “Density (cells/mL)” value (L. guyanensis (LgyLRV1+)) does the source give for “3′-Azido-3′-hydroxyethyl cyclobutyl adenine [Compound E8]” here?
Answer: The value was 1.86E+7 cells/mL.

Question: What about the “Percent control (density)” value (L. guyanensis (LgyLRV1+)) of the same compound?
Answer: Its value is 111 Percent control.

Question: And the “LRV1 capsid (geometric mean FU)” value ([1]; LgyLRV1+)?
Answer: The value was 277 FU.

Question: What about the “Percent control (LRV1 capsid)” value ([1]; LgyLRV1+) of the same compound?
Answer: Its value is 104 Percent control.

Question: With “3′-Azido-3′-hydroxyethyl cyclobutyl adenine [Compound E9]” as the compound, how does the “Density (cells/mL)” value (L. guyanensis (LgyLRV1+)) read?
Answer: The value was 1.58E+7 cells/mL.

Question: And the “Percent control (density)” value (L. guyanensis (LgyLRV1+))?
Answer: The value was 94 Percent control.

Question: What about the “LRV1 capsid (geometric mean FU)” value ([1]; LgyLRV1+) of the same compound?
Answer: Its value is 279 FU.

Question: And the “Percent control (LRV1 capsid)” value ([1]; LgyLRV1+)?
Answer: Its value is 105 Percent control.

Question: For 3′-Hydroxyethyl cyclobutyl adenine, which “Density (cells/mL)” value (L. guyanensis (LgyLRV1+)) is on record?
Answer: Its value is 1.82E+7 cells/mL.

Question: And the “Percent control (density)” value (L. guyanensis (LgyLRV1+))?
Answer: The value was 108 Percent control.

Question: What about the “LRV1 capsid (geometric mean FU)” value ([1]; LgyLRV1+) of the same compound?
Answer: The value was 290 FU.

Question: And the “Percent control (LRV1 capsid)” value ([1]; LgyLRV1+)?
Answer: Its value is 109 Percent control.

Question: With `Nc1ncnc2c1ncn2[C@@H]1O[C@H](CO)[C@@H](O)[C@H]1F` [2′-Fluoro-2′-deoxyadenosine] as the compound, how does the activity at 100 µM (L. guyanensis (LgyLRV1+)) read?
Answer: The activity at 100 µM was 123%.

Question: What about the “Density (cells/mL)” value (L. guyanensis (LgyLRV1+)) of the same compound?
Answer: Its value is 2.07E+7 cells/mL.

Question: And the activity at 100 µM [1]?
Answer: The activity at 100 µM was 97%.

Question: What about the “LRV1 capsid (geometric mean FU)” value ([1]; LgyLRV1+) of the same compound?
Answer: Its value is 257 FU.

Question: How did the activity at 100 µM (L. guyanensis (LgyLRV1+)) turn out when `Nc1ccn([C@@H]2O[C@H](CO)[C@@H](O)[C@H]2F)c(=O)n1` [2′-Fluoro-2′-deoxycytidine] was run?
Answer: The activity at 100 µM was 132%.

Question: And the “Density (cells/mL)” value (L. guyanensis (LgyLRV1+))?
Answer: The value was 2.21E+7 cells/mL.

Question: And the activity at 100 µM [1]?
Answer: The activity at 100 µM was 87%.

Question: What about the “LRV1 capsid (geometric mean FU)” value ([1]; LgyLRV1+) of the same compound?
Answer: Its value is 230 FU.

Question: For `OC[C@H]1O[C@@H](n2cnc3c(O)ncnc32)[C@H](F)[C@@H]1O` [2′-Fluoro-2′-deoxyinosine], which activity at 100 µM (L. guyanensis (LgyLRV1+)) is on record?
Answer: Its activity at 100 µM is 143%.

Question: What about the “Density (cells/mL)” value (L. guyanensis (LgyLRV1+)) of the same compound?
Answer: The value was 2.41E+7 cells/mL.

Question: And the activity at 100 µM [1]?
Answer: Its activity at 100 µM is 96%.

Question: And the “LRV1 capsid (geometric mean FU)” value ([1]; LgyLRV1+)?
Answer: The value was 255 FU.

Question: Which activity at 100 µM (L. guyanensis (LgyLRV1+)) does the source give for `Nc1nc2c(ncn2[C@@H]2O[C@H](CO)[C@@H](O)[C@H]2F)c(=O)[nH]1` [2′-fluoro-2′-deoxyguanosine, 2′-Fluoro-2′-deoxyguanosine] here?
Answer: Its activity at 100 µM is 100%.

Question: What about the “Density (cells/mL)” value (L. guyanensis (LgyLRV1+)) of the same compound?
Answer: The value was 1.68E+7 cells/mL.

Question: What about the activity at 100 µM [1] of the same compound?
Answer: Its activity at 100 µM is 123%.

Question: And the “LRV1 capsid (geometric mean FU)” value ([1]; LgyLRV1+)?
Answer: The value was 326 FU.

Question: Which results are given for `O=c1ccn([C@@H]2O[C@H](CO)[C@@H](O)[C@H]2F)c(=O)[nH]1` [2′-fluoro-2′-deoxyuridine, 2′-Fluoro-2′-deoxyuridine]?
Answer: activity at 100 µM (L. guyanensis (LgyLRV1+)): 132%; Density (cells/mL) (L. guyanensis (LgyLRV1+)): 2.22E+7 cells/mL; activity at 100 µM [1]: 88%; LRV1 capsid (geometric mean FU) ([1]; LgyLRV1+): 234 FU

Question: What does the source list for `C[C@@]1(O)[C@H](O)[C@@H](CO)O[C@H]1n1cnc2c(=O)[nH]c(N)nc21` [2′C-Methyguanosine, 2′C-Methyl guanosine]?
Answer: Density (cells/mL) (L. guyanensis (LgyLRV1+)): 2.25E+7 cells/mL; Percent control (density) (L. guyanensis (LgyLRV1+)): 133 Percent control; Effect on L. guyanensis growth, in words (L. guyanensis (LgyLRV1+)): little effect; LRV1 capsid (geometric mean FU) ([1]; LgyLRV1+): 252 FU; Percent control (LRV1 capsid) ([1]; LgyLRV1+): 95 Percent control; Effect on LRV1 (capsid) levels, in words [1]: little effect

Question: With `C[C@@]1(O)[C@H](O)[C@@H](CO)O[C@H]1n1ccc(N)nc1=O` [2′C-Methylcytidine, 2′C-Methyl cytidine] as the compound, how does the “Density (cells/mL)” value (L. guyanensis (LgyLRV1+)) read?
Answer: Its value is 1.73E+7 cells/mL.

Question: What about the “Percent control (density)” value (L. guyanensis (LgyLRV1+)) of the same compound?
Answer: Its value is 103 Percent control.

Question: And the “Effect on L. guyanensis growth, in words” value (L. guyanensis (LgyLRV1+))?
Answer: The value was “little effect”.

Question: And the “LRV1 capsid (geometric mean FU)” value ([1]; LgyLRV1+)?
Answer: The value was 162 FU.

Question: What about the “Percent control (LRV1 capsid)” value ([1]; LgyLRV1+) of the same compound?
Answer: The value was 61 Percent control.

Question: And the “Effect on LRV1 (capsid) levels, in words” value [1]?
Answer: Its value is “little effect”.

Question: Which “Inhibition of LRV1 levels, in words” value [1] does the source give for `Nc1ncnc2c(CN3C[C@H](CO)[C@@H](O)C3)c[nH]c12` [DADMe-Immucillin A] here?
Answer: The value was “no inhibition of LRV1 levels”.

Question: Which “Inhibition of LRV1 levels, in words” value [1] does the source give for `O=c1[nH]cnc2c(CN3C[C@H](CO)[C@@H](O)C3)c[nH]c12` [DADMe-Immucillin H] here?
Answer: Its value is “no inhibition of LRV1 levels”.

Question: With `Nc1ncnc2c(C3N[C@H](CO)[C@@H](O)[C@H]3O)c[nH]c12` (stereo partly drawn) [Immucillin A] as the compound, how does the “Inhibition of LRV1 levels, in words” value [1] read?
Answer: The value was “no inhibition of LRV1 levels”.

Question: `O=c1[nH]cnc2c([C@@H]3N[C@H](CO)[C@@H](O)[C@H]3O)c[nH]c12` [Immucillin H] was tested. Which “Inhibition of LRV1 levels, in words” value [1] did it give?
Answer: The value was “no inhibition of LRV1 levels”.

Question: What does the source list for `Nc1ccn([C@@H]2CS[C@H](CO)O2)c(=O)n1` [Lamivudine]?
Answer: activity at 100 µM (L. guyanensis (LgyLRV1+)): 55%; Density (cells/mL) (L. guyanensis (LgyLRV1+)): 9.20E+6 cells/mL

Question: `Nc1ncnc2nc[nH]c12` [adenine] was tested. Which “Effect of exogenous adenine on LRV1 levels, in words” value ([1]; adenine up to 400 μM, LgyLRV1+) did it give?
Answer: The value was “nor did it alter LRV1 levels”.
